This passage reports IC50, EC50 and solubility results from ChEMBL document CHEMBL5523686, “Medicinal chemistry perspectives on the development of piperazine-containing HIV-1 inhibitors” (Bioorg Med Chem, 2024).

The test system of data set [1] is Human immunodeficiency virus 1. Nature of the data set: Antiviral activity against HIV-1 3B infected in human MT4 cells assessed as inhibition of viral replication incubated for 5 days by MTT assay. The settings on record: Human immunodeficiency virus 1, 3B, MT4, 120 h. Type of data set: functional, organism-based. Background: Tetrazolium assays rely on reduction of a dye to a coloured formazan, in cell work by metabolically active cells.

Data set [2] relates to Human immunodeficiency virus 2. Nature of the data set: Antiviral activity against HIV-2 ROD infected in human MT4 cells assessed as inhibition of viral replication measured after 5 days by MTT spectrophotometric assay. Type of data set: functional, organism-based. The conditions noted are these: Human immunodeficiency virus 2, ROD, MT4, 120 h.
In data set [3] the test system is Human immunodeficiency virus 1. Nature of the data set: Antiviral activity against HIV-1 IIIB infected in human MT4 cells assessed as inhibition of viral replication measured after 5 days by MTT spectrophotometric assay. In kind it is functional, organism-based. The settings on record: Human immunodeficiency virus 1, IIIB, MT4, 120 h.
Data set [4] deals with Human immunodeficiency virus 1. Nature of the data set: Antiviral activity against HIV1 IIIB infected in human MT4 cells assessed as inhibition of viral replication incubated for 3 to 7 days by MTT analysis. The settings on record: Human immunodeficiency virus 1, IIIB. Type of data set: functional, organism-based.
In data set [5] the test system is Human immunodeficiency virus 1. Nature of the data set: Antiviral activity against HIV1 Env pseudotyped virus infected in human HEK293T cells assessed as inhibition of viral growth incubated for 72 hrs by luciferase assay. Type of data set: functional, organism-based. The conditions noted are these: Human immunodeficiency virus 1, HEK-293T.
The subject of data set [6] is Human immunodeficiency virus 1. The data set can be described thus: Antiviral activity against wild type HIV1 IIIB infected in human MT4 cells assessed as inhibition of viral replication incubated for 3 to 5 days by MTT analysis. The conditions noted are these: Human immunodeficiency virus 1, IIIB. Type of data set: functional, organism-based.
A short description of data set [7]: Aqueous solubility of compound at pH 7. In kind it is physicochemical.

Structures are written as SMILES. In brackets after ≈: the same amount, converted by molar mass.

As usually defined, the IC50 is the concentration that inhibits the measured activity by half. Consider `O=C1Nc2ccc(Cl)cc2[C@@](C#CC2CC2)(C(F)(F)F)N1`, for which the IC50 in data set [1] was determined as 813 nM; in data set [2] it was 2.22 µg/mL (≈ 7.05 µM); in data set [3], 2.22 µg/mL (≈ 7.05 µM).

Usually EC50 stands for the concentration needed to bring the measured effect to its halfway point. As for `Cn1c(N2CCNCC2)c(/N=N/c2ccc(Cl)cc2)c(N)nc1=O`, in data set [4], the EC50 is over 3030 nM.

As to `COc1cnc(-n2cnc(C)n2)c2[nH]cc(C(=O)C(=O)N3CC(C)N(C(=O)c4ccccc4)C(C)C3)c12` (stereo not drawn), the IC50 in data set [5] came out at 0.14 nM.

In the case of `Cc1cc(C#N)cc(C)c1Oc1ccnc(Nc2ccc(N3CCN(S(C)(=O)=O)CC3)nc2)n1`, the EC50 in data set [6] amounted to 2 nM.

As a reminder, the solubility is how much of the substance goes into solution per volume. High values mean a readily soluble substance, low ones a poorly soluble substance. As for `Cc1cc(C#N)cc(C)c1Oc1ccnc(Nc2ccc(N3CCN(S(C)(=O)=O)CC3)c(C#N)c2)n1`, the EC50 in data set [6] worked out at 1 nM. The solubility in data set [7] was 13.5 µg/mL (≈ 26.7 µM).
